Laboratory results as given in the supplement of paper PMC11061612.

How the values were obtained:
Experiment in all cases: Bliss excess, mean over the matrix (fraction); higher = more synergy
[1] = test system: MOLP-8 (Plasma Cell Myeloma)
Outline: (§1)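 Bliss excess equals the observed combination effect minus the expected value EA + EB − EA·EB, where EA and EB are the effects of each agent alone. Combination Emax is the second-highest inhibition within the matrix. Inhibition was scaled from CellTiter-Glo 2.0 luminescence, with 0 set by vehicle wells and 1 by blank wells, after 72 hours of two-drug dosing of cells plated in 1536-well plates.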

[2] = test system: PA-TU-8988T (Pancreatic Carcinoma)
Outline: as §1

[3] = test system: MS-1 (Small Cell Lung Carcinoma)
Outline: as §1

[4] = test system: MDA-MB-415 (Breast Carcinoma)
Outline: as §1

[5] = test system: NCI-H1876 (Small Cell Lung Carcinoma)
Outline: as §1

[6] = test system: OVCAR-3 (Ovarian Carcinoma)
Outline: as §1

[7] = test system: LS-1034 (Colorectal Carcinoma)
Outline: as §1

UACC-257 (Melanoma) = test system: UACC-257 (Melanoma)
Outline: as §1

[8] = test system: NCI-H3118 (Head and Neck Carcinoma)
Outline: as §1

[9] = test system: SNU-C2B (Colorectal Carcinoma)
Outline: as §1

KALS-1 (Glioblastoma) = test system: KALS-1 (Glioblastoma)
Outline: as §1

[10] = test system: TUR (Acute Myeloid Leukemia)
Outline: as §1

ES6 (Ewing's Sarcoma) = test system: ES6 (Ewing's Sarcoma)
Outline: as §1

[11] = test system: C-33-A (Cervical Carcinoma)
Outline: as §1

[12] = test system: MM1S (Plasma Cell Myeloma)
Outline: as §1

[13] = test system: NCI-H1963 (Small Cell Lung Carcinoma)
Outline: as §1

[14] = test system: T84 (Colorectal Carcinoma)
Outline: as §1

[15] = test system: BHT-101 (Thyroid Gland Carcinoma)
Outline: as §1

[16] = test system: CPC-N (Small Cell Lung Carcinoma)
Outline: as §1

[17] = test system: Raji (Burkitt's Lymphoma)
Outline: as §1

Structure (SMILES)	Bliss excess [1]	Bliss excess [2]	Bliss excess [3]	Bliss excess [4]	Bliss excess [5]	Bliss excess [6]	Bliss excess [7]	Bliss excess (UACC-257 (Melanoma))	Bliss excess [8]	Bliss excess [9]	Bliss excess (KALS-1 (Glioblastoma))	Bliss excess [10]	Bliss excess (ES6 (Ewing's Sarcoma))	Bliss excess [11]	Bliss excess [12]	Bliss excess [13]	Bliss excess [14]	Bliss excess [15]	Bliss excess [16]	Bliss excess [17]
Cn1cnc2c(F)c(Nc3ccc(Br)cc3Cl)c(C(=O)NOCCO)cc21 [Selumetinib] + CC(C)n1c(=O)n(C)c2cnc3cc(F)c(-c4ccc(OCCCN5CCCCC5)nc4)cc3c21 [AZD1390] (first compound max 10 µM, 7x7, partner max 0.3 µM)	-0.0274	-0.0269	-0.02	-0.047	0.0068	-0.0387	-0.0198	-0.0099	0.0525	-0.0081	-0.0115	-0.0122	-0.0639	0.0134	0.0258	0.0154	-0.0265	-0.0429	-0.0396	-0.0189
CN(C)CCCOc1ccc(-c2ccc3ncc4c(c3c2)n(C2CCOCC2)c(=O)n4C)cn1 [AZD0156] + C[C@@H]1COCCN1C2=NC(=NC(=C2)C3(CC3)[S@](=N)(=O)C)C4=C5C=CNC5=NC=C4 [AZD6738] (first compound max 1 µM, 7x7, partner max 10 µM)	0.0203	0.0423	0.0279	-0.007	0.0226	0.0353	0.0161	-0.0338	-0.0235	0.0183	-0.0032	0.0261	-0.0076	0.0157	0.0173	0.0086	0.0182	0.0222	0.0316	0.0164
Cc1c2c(nn1C)CSCc1cc(n(C)n1)CSc1cc(c3ccccc3c1)OCCCc1c(C(=O)O)n(C)c3c-2c(Cl)ccc13 [AZD5991] + CC1(C)CCC(CN2CCN(c3ccc(C(=O)NS(=O)(=O)c4ccc(NCC5CCOCC5)c([N+](=O)[O-])c4)c(Oc4cnc5[nH]ccc5c4)c3)CC2)=C(c2ccc(Cl)cc2)C1 [Venetoclax] (first compound max 1 µM, 7x7, partner max 1 µM)	0.0174	-0.0031	0.0089	0.0637	0.12	-0.0103	-0.0159	-0.0485	-0.0163	-0.0289	-0.0206	0.138	-0.0065	-0.006	0.0483	0.119	-0.0369	0.0146	-0.017	0.0287
Cc1cc2ncnn2cc1Nc1ncc2c(n1)n(C1CCOCC1)c(=O)n2C [AZD7648] + C=CCn1c(=O)c2cnc(Nc3ccc(N4CCN(C)CC4)cc3)nc2n1-c1cccc(C(C)(C)O)n1 [AZD1775] (first compound max 10 µM, partner max 1 µM)	0.0123	-0.0563	-0.0401	-0.027	0.0508	-0.0355	-0.0645	0.0334	-0.0219	-0.0404	-0.0051	0.019	-0.0031	0.0409	-0.0401	0.0345	-0.0288	0.0005	-0.0055	-0.0359
CS(=O)(=O)CCNCc1ccc(-c2ccc3ncnc(Nc4ccc(OCc5cccc(F)c5)c(Cl)c4)c3c2)o1 [Lapatinib] + C[C@@H](Oc1cc(-c2cnn(C3CCNCC3)c2)cnc1N)c1c(Cl)ccc(F)c1Cl [Crizotinib] (first compound max 10 µM, 7x7, partner max 10 µM)	0.012	-0.0244	-0.0784	-0.0417	0.0167	-0.0161	-0.0407	-0.0442	0.0337	-0.0515	-0.0378	-0.0168	-0.0437	-0.0373	0.0395	-0.0272	-0.006	-0.0399	-0.0741	0.0203
C=CCn1c(=O)c2cnc(Nc3ccc(N4CCN(C)CC4)cc3)nc2n1-c1cccc(C(C)(C)O)n1 [AZD1775] + O=C(c1cc(Cc2n[nH]c(=O)c3ccccc23)ccc1F)N1CCN(C(=O)C2CC2)CC1 [Olaparib] (first compound max 1 µM, partner max 10 µM)	-0.0294	-0.0094	-0.0094	-0.0482	0.0311	0.0351	0.0299	-0.0197	-0.0301	0.0056	-0.0611	0.0029	0.0465	0.0051	-0.0321	-0.0252	-0.0136	-0.0568	0.0183	-0.016
CC1(C)CCC(CN2CCN(c3ccc(C(=O)NS(=O)(=O)c4ccc(NCC5CCOCC5)c([N+](=O)[O-])c4)c(Oc4cnc5[nH]ccc5c4)c3)CC2)=C(c2ccc(Cl)cc2)C1 [Venetoclax] + C[C@@H]1COCCN1C2=NC(=NC(=C2)C3(CC3)[S@](=N)(=O)C)C4=C5C=CNC5=NC=C4 [AZD6738] (first compound max 1 µM, 7x7, partner max 10 µM)	-0.0193	0.0107	0.0066	-0.0584	-0.0358	-0.0108	-0.0255	-0.0092	-0.0643	-0.0102	-0.034	-0.0024	-0.0314	-0.0127	0.0444	0.0004	-0.0134	-0.0888	-0.0526	0.0091
CN(CCO)CC[C@H](CSc1ccccc1)Nc1ccc(S(=O)(=O)NC(=O)c2ccc(N3CCC([C@@H](O)c4ccccc4-c4ccc(Cl)cc4)CC3)cc2)cc1S(=O)(=O)C(F)(F)F [AZD4320] + C[C@@H](Nc1cc(F)cc(F)c1)c1cc(C(=O)N(C)C)cc2c(=O)cc(N3CCOCC3)oc12 [AZD8186] (first compound max 1 µM, 7x7, partner max 3 µM)	0.0576	-0.005	0.0115	0.0439	0.0682	-0.0135	-0.0026	0.0488	0.0019	0.0342	0.0385	0.0019	0.0029	-0.0542	0.0538	0.0841	-0.0287	-0.0192	0.0273	0.0133
CC1(C)CCC(CN2CCN(c3ccc(C(=O)NS(=O)(=O)c4ccc(NCC5CCOCC5)c([N+](=O)[O-])c4)c(Oc4cnc5[nH]ccc5c4)c3)CC2)=C(c2ccc(Cl)cc2)C1 [Venetoclax] + Cc1cc2ncnn2cc1Nc1ncc2c(n1)n(C1CCOCC1)c(=O)n2C [AZD7648] (first compound max 1 µM, 7x7, partner max 10 µM)	0.0222	-0.0251	0.0008	-0.117	0.0111	-0.0259	-0.0323	-0.0235	-0.0369	0.0034	-0.0904	-0.0016	-0.0359	-0.0032	0.0556	0.109	-0.0267	-0.0011	-0.0219	0.0289
COc1nnc2ccc(N3CCC(c4ccc(OCCN5CCN(C)C(=O)[C@H]5C)cc4)CC3)nn12 [AZD5153] + C[C@@H]1COCCN1C2=NC(=NC(=C2)C3(CC3)[S@](=N)(=O)C)C4=C5C=CNC5=NC=C4 [AZD6738] (first compound max 1 µM, 7x7, partner max 10 µM)	-0.0211	0.0531	-0.0701	-0.0009	0.089	0.0931	-0.0132	0.0581	-0.0879	0.0233	-0.0314	-0.0046	0.0339	0.0515	0.0719	-0.0228	-0.131	-0.0166	-0.0692	-0.0198
CN(CCO)CC[C@H](CSc1ccccc1)Nc1ccc(S(=O)(=O)NC(=O)c2ccc(N3CCC([C@@H](O)c4ccccc4-c4ccc(Cl)cc4)CC3)cc2)cc1S(=O)(=O)C(F)(F)F [AZD4320] + C1CN(CCC1(C(=O)N[C@@H](CCO)C2=CC=C(C=C2)Cl)N)C3=NC=NC4=C3C=CN4 [Capivasertib] (first compound max 1 µM, 7x7, partner max 3 µM)	-0.025	-0.0315	-0.0037	-0.0284	-0.0593	-0.0393	-0.0089	-0.0405	-0.0476	-0.0305	-0.0039	-0.0062	-0.0522	-0.0302	-0.0076	0.0172	-0.0269	0.0092	-0.0158	-0.0109
CC1(C)CCC(CN2CCN(c3ccc(C(=O)NS(=O)(=O)c4ccc(NCC5CCOCC5)c([N+](=O)[O-])c4)c(Oc4cnc5[nH]ccc5c4)c3)CC2)=C(c2ccc(Cl)cc2)C1 [Venetoclax] + C1CN(CCC1(C(=O)N[C@@H](CCO)C2=CC=C(C=C2)Cl)N)C3=NC=NC4=C3C=CN4 [Capivasertib] (first compound max 1 µM, 7x7, partner max 3 µM)	-0.0114	0.0237	-0.0572	-0.102	-0.0952	-0.0288	-0.0214	-0.0707	-0.0641	-0.0833	-0.0501	-0.0176	-0.0858	-0.0453	-0.0028	-0.0031	-0.0518	-0.0312	-0.0365	-0.0008
CN(CCO)CC[C@H](CSc1ccccc1)Nc1ccc(S(=O)(=O)NC(=O)c2ccc(N3CCC([C@@H](O)c4ccccc4-c4ccc(Cl)cc4)CC3)cc2)cc1S(=O)(=O)C(F)(F)F [AZD4320] + CN(C)CCCOc1ccc(-c2ccc3ncc4c(c3c2)n(C2CCOCC2)c(=O)n4C)cn1 [AZD0156] (first compound max 1 µM, 7x7, partner max 1 µM)	0.0233	-0.005	0.0275	-0.114	0.0374	-0.0407	-0.0386	-0.0323	-0.044	-0.0007	-0.0076	-0.0023	-0.0314	-0.0302	0.0753	0.0708	-0.0243	-0.0193	-0.0391	0.0041
Cn1cnc2c(F)c(Nc3ccc(Br)cc3Cl)c(C(=O)NOCCO)cc21 [Selumetinib] + C[C@@H]1COCCN1C2=NC(=NC(=C2)C3(CC3)[S@](=N)(=O)C)C4=C5C=CNC5=NC=C4 [AZD6738] (first compound max 10 µM, 7x7, partner max 10 µM)	0.0551	0.0731	-0.0521	-0.0395	0.0218	-0.0202	-0.0316	0.047	0.0091	0.0369	-0.0479	0.0151	-0.043	0.0486	0.0511	0.0735	0.1	-0.0174	-0.046	-0.0273
